Measurements reported in PMC7432833, “Unusual Occurrence of Two Bona-Fide CCA-Adding Enzymes in Dictyostelium discoideum” (International Journal of Molecular Sciences, 2020).

How the values were obtained:
CCA2 = target: T1, CCA2 (Dictyostelium discoideum, UniProt Q55BE1); assay: nucleotide binding assay (supplement)
T1 construct: gene DDB_G0271378; full-length codon-optimized ORF, C-terminal His tag, pET28b(+), E. coli BL21(DE3) delta-cca; Q/N-rich
T1 sequence (Q55BE1 1-542): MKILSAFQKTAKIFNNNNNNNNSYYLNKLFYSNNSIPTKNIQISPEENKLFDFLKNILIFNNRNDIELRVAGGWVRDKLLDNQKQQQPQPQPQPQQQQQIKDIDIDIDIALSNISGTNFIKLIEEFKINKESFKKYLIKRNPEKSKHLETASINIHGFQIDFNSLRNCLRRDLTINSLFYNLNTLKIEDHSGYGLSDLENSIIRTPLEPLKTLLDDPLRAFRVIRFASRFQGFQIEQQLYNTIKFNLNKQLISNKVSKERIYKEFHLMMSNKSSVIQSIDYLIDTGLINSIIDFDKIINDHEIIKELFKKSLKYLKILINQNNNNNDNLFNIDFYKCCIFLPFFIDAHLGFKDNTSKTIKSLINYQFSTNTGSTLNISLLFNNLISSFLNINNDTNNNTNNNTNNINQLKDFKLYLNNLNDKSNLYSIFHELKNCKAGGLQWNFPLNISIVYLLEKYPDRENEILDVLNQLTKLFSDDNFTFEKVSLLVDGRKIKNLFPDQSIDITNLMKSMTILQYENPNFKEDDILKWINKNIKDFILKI

CCA1 = target: T2, CCA1 (Dictyostelium discoideum, UniProt Q54BQ2); assay: nucleotide binding assay (supplement)
T2 construct: gene DDB_G0293504; full-length codon-optimized ORF, C-terminal His tag, pET28b(+), E. coli BL21(DE3) delta-cca
T2 sequence (Q54BQ2 1-558): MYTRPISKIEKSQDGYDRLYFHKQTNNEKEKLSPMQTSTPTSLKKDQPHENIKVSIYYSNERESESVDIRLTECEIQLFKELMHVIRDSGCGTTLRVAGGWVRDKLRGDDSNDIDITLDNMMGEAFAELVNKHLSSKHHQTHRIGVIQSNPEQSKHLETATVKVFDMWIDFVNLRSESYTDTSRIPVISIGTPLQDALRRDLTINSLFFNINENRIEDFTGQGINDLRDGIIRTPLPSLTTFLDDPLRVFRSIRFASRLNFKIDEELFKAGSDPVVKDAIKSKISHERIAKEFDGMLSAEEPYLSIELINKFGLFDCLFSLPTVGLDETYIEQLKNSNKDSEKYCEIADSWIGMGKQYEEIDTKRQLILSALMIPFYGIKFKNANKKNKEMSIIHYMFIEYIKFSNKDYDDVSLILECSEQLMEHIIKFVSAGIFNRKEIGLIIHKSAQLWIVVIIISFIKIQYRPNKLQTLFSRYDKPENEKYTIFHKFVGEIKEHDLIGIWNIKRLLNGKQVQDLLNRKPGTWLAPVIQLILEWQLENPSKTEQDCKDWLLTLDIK

[1] = system: T3, CCA2 (tRNA nucleotidyltransferase 2, Q/N-rich) (Dictyostelium discoideum); assay: EMSA; details: 6 mM Mg2+, EMSA: HEPES/KOH pH 7.6 (concentration not stated), 30 mM KCl, 6 mM MgCl2, 20 C, 10 min, 0.5 pmol tRNA, 0-5 uM enzyme, 5% native PAA gel, n=3
T3 sequence: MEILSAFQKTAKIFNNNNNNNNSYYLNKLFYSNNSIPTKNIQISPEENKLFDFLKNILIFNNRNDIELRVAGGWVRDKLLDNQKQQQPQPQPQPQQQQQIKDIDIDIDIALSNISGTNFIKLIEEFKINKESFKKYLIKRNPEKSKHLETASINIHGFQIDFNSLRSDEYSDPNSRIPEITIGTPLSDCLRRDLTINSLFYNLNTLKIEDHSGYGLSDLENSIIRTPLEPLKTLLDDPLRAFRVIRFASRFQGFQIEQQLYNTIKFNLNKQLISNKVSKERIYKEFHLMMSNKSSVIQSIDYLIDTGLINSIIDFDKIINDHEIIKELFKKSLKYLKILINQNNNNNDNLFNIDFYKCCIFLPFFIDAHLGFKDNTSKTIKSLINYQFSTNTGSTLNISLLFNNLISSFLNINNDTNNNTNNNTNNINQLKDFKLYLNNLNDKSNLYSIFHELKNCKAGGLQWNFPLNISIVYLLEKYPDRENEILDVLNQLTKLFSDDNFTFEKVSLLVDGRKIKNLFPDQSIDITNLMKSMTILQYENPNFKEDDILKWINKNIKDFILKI

| Molecule | nucleotide binding assay (supplement) (CCA2) | nucleotide binding assay (supplement) (CCA1) | Kd [1] | Kd ([1]; tRNA pool, native tRNA modifications (isolated from cells)) |
| --- | --- | --- | --- | --- |
| Nc1ncnc2c1ncn2[C@@H]1O[C@H](COP(=O)(O)OP(=O)(O)OP(=O)(O)O)[C@@H](O)[C@H]1O [ATP] | when incubated with CTP or ATP alone, both enzymes showed an almost identical binding behavior | when incubated with CTP or ATP alone, both enzymes showed an almost identical binding behavior |  |  |
| Nc1ccn([C@@H]2O[C@H](COP(=O)(O)OP(=O)(O)OP(=O)(O)O)[C@@H](O)[C@H]2O)c(=O)n1 [CTP] | when incubated with CTP or ATP alone, both enzymes showed an almost identical binding behavior | when incubated with CTP or ATP alone, both enzymes showed an almost identical binding behavior |  |  |
| tRNAPhe-CC in vitro transcript (yeast per Fig. 5 legend) |  |  | 2300 nM |  |
| total in vivo tRNA-CC pool |  |  |  | 1700 nM |
